Patent US11597708B2, “Inhibitors of heat shock factors and uses thereof” (HSF Pharmaceuticals SA, priority 2016, dated 2023)

How the values were obtained:
[1] = tested on: hsp70b/hspa7 promoter-driven rluc gene; assay: Reverse transcription real-time PCR of rluc mRNA in Z74 cells; assay type: cell-based, human; conditions: for rluc mRNA levels at 1 μM: 1 μM concentrations of the IHSF; for transcript levels of the hsp70b/hspa7 promoter-driven rluc gene: 2 h exposure at different concentrations, heat treatment, 1 h post-incubation at 37° C.
Procedure: (§1) FIG. 4. (A) rluc, hspa7 and hspa1a mRNA levels in Z74 cells mock-exposed (−) or exposed to the indicated concentrations of compounds 058 or 115 for 2 hours, heat-treated (HS) at 43° C. for 30 min and post-incubated for one hour at 37° C. mRNA levels were quantified by reverse transcription-real-time PCR. (B) HSP72 levels in HeLa cells mock-exposed (−) or exposed to the indicated concentrations of compounds 058 or 115 for 2 hours, heat-treated (HS) at 43° C. for 30 min and post-incubated for 6 hours at 37° C. HSP72 levels were estimated by HSP72 WB. GAPDH levels served as “loading controls”.
(§2) To assess the transcriptional effects of the IHSF, cultures of Z74 cells were exposed for two hours to IHSF 058 or IHSF 115 at different concentrations, or to vehicle. Following heat treatment and a one-hour post-incubation at 37° C., extracts were prepared, and polyadenylated rluc, hsp70b (hspa7) and hspa1a RNA was quantified by reverse transcription and real-time PCR. […] IHSF 115 had somewhat more important effects than IHSF 058. […] We tend to discount the possibility that the latter data report effects on transcript stability.

[2] = target: T1, HSF1 levels (Homo sapiens, UniProt Q00613); assay: Anti-HSF1 western blot of HeLa cell extracts; assay type: cell-based; conditions: same extracts of exposed, heat-treated HeLa cells
T1 construct: functionally linked to an hsp70b promoter and therefore controlled by endogenous HSF1; endogenous in cells; host or cells: HeLa cells / HeLa-derived cell line Z74
T1 sequence (Q00613 whole entry): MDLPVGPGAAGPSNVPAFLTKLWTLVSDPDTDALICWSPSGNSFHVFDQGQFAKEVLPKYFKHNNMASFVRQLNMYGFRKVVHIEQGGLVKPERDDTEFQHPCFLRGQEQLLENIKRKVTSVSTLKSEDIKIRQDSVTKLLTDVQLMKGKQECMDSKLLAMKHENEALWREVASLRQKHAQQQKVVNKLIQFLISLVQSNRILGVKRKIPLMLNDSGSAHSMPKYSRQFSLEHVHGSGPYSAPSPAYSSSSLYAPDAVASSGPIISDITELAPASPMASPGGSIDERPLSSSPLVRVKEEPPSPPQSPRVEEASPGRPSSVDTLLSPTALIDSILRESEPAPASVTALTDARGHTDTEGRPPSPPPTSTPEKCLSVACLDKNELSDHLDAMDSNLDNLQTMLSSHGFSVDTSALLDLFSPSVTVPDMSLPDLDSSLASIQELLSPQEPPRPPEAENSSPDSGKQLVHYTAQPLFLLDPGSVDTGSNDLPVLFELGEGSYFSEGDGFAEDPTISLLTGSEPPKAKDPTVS
Procedure: FIG. 3. (A) HeLa cell cultures were mock-treated (−) or exposed for 2 hours to the indicated concentrations of compounds 058 or 115 and then heat-treated (HS) at 43° C. for 30 min. Top panels: HSF1 DNA-binding activities in cell extracts were determined by EMSA. The panels show the major HSF1-HSE DNA probe complexes. Middle panels: HSF1 levels assayed by western blot (WB). GAPDH served as a loading control. Bottom panels: HSF1 homooligomerization. Aliquots of extracts were EGS-treated and then analyzed by anti-HSF1 WB. The positions of pre-stained molecular weight marker proteins (MW, in thousands) are indicated to the right. Asterisks indicate the positions of monomeric and trimeric HSF1, respectively. (B) Relative occupancy of the hspa1a promoter was assessed by chromatin immunoprecipitation assay of HeLa cell cultures mock-treated (−) or treated with compounds 058 or 115 at 12.5 μM concentrations for 2 hours and then heat-treated (HS) at 43° C. for 30 min. Chromatin fragments were immunoprecipitated using HSF1 antibodies or an F4/80 LR (control) antibody, and associated hspa1a promoter DNA was quantified by real-time PCR. […]

[3] = tested on: hspa7 (hsp70b); assay: Reverse transcription real-time PCR of hspa7 (hsp70b) mRNA in Z74 cells; assay type: cell-based, human; conditions: heat-treated, somewhat less sensitive than rluc gene
Procedure: as §1, §2

[4] = target: T2, HSF1 oligomerization (Homo sapiens, UniProt Q00613); assay: EGS cross-linking and anti-HSF1 western blot (HSF1 oligomerization); assay type: cell-based; conditions: extracts of exposed, heat-treated HeLa cells
T2 construct: functionally linked to an hsp70b promoter and therefore controlled by endogenous HSF1; endogenous in cells; host or cells: HeLa cells / HeLa-derived cell line Z74
T2 sequence (Q00613 whole entry): as above
Procedure: FIG. 3. (A) HeLa cell cultures were mock-treated (−) or exposed for 2 hours to the indicated concentrations of compounds 058 or 115 and then heat-treated (HS) at 43° C. for 30 min. Top panels: HSF1 DNA-binding activities in cell extracts were determined by EMSA. The panels show the major HSF1-HSE DNA probe complexes. Middle panels: HSF1 levels assayed by western blot (WB). GAPDH served as a loading control. Bottom panels: HSF1 homooligomerization. Aliquots of extracts were EGS-treated and then analyzed by anti-HSF1 WB. The positions of pre-stained molecular weight marker proteins (MW, in thousands) are indicated to the right. Asterisks indicate the positions of monomeric and trimeric HSF1, respectively. (B) Relative occupancy of the hspa1a promoter was assessed by chromatin immunoprecipitation assay of HeLa cell cultures mock-treated (−) or treated with compounds 058 or 115 at 12.5 μM concentrations for 2 hours and then heat-treated (HS) at 43° C. for 30 min. Chromatin fragments were immunoprecipitated using HSF1 antibodies or an F4/80 LR (control) antibody, and associated hspa1a promoter DNA was quantified by real-time PCR.
We also investigated whether the compounds were capable of interfering with HSF1 oligomerization. Aliquots of the extracts were subjected to cross-linking with EGS (ethylene glycolbis(succinimidylsuccinate)) and then re-analyzed by anti-HSF1 WB. […]

[5] = tested on: hspa1a; assay: Reverse transcription real-time PCR of hspa1a mRNA in Z74 cells; assay type: cell-based, human; conditions: heat-treated, somewhat less sensitive than rluc gene
Procedure: as §1, §2

[6] = Aqueous solubility (statement); assay type: physicochemical
[7] = tested on: inducible Hsp70 (HSP72); assay: HSP72 western blot in heat-treated HeLa cells; assay type: cell-based, human
Procedure: as §1

Compound | rluc mRNA levels at 1 μM [1] | transcript levels of the hsp70b/hspa7 promoter-driven rluc gene [1] | HSF1 levels (anti-HSF1 western blot) [2] | hspa7 (hsp70b) transcript accumulation [3] | HSF1 oligomerization (EGS cross-linking, anti-HSF1 WB) [4] | hspa1a transcript accumulation [5] | aqueous solubility [6] | heat-induced accumulation of inducible Hsp70 (WB), relative effectiveness [7] | heat-induced accumulation of inducible Hsp70 (WB) ([7]; 3.125 μM) | heat-induced accumulation of inducible Hsp70 (WB) ([7]; 6.25 μM)
CCOC(=O)/C=C/C(=O)Nc1ncc(-c2cccnc2)s1 [IHSF 058, (E)-3-(5-Pyridm-3-yl-thiazol-2-ylcarbamoyl)-acrylic acid ethyl ester] | substantially reduced | dose-dependent reduction | reduced levels of HSF1 | Dose-dependent inhibitory effects | No impairment of oligomerization | Dose-dependent inhibitory effects | limited | less effective than IHSF 115 | – | –
CN(C(=O)/C=C/C1=NCCCO1)c1ncc(-c2cccnc2)s1 [IHSF 115, (E)-3-(5,6-Dihydro-4H-[1,3]oxazin-2-yl)-N-methyl-N-(5-pyridin-3-yl-thiazol-2-yl)-acrylamide] | substantially reduced | dose-dependent reduction | did not affect HSF1 levels | Dose-dependent inhibitory effects | No impairment of oligomerization | Dose-dependent inhibitory effects | limited | – | detectable inhibitory effects | more substantial effects
